Experiments:
[1] = Cytotoxicity against human MT4 cells expressing CD4 and CXCR4 assessed as cell viability
[2] = system: Human immunodeficiency virus 1; experiment: Antiviral activity against HIV1 NL4.3 infected in human MT4 cells expressing CD4 and CXCR4 assessed as inhibition of virus-induced cytopathicity; type: functional, organism-based; settings: Human immunodeficiency virus 1, NL4.3, MT4
[3] = target: T1, C-X-C chemokine receptor type 4 (Homo sapiens, UniProt P61073); experiment: Antagonist activity at CXCR4 in human CEM-CCRF cells assessed as inhibition of SDF-1-induced calcium flux; type: functional, cell-based
[4] = target: T1, C-X-C chemokine receptor type 4; experiment: Inhibition of anti-CXCR4 12G5 monoclonal antibody to CXCR4 in human SUP-T1 cells pretreated for 30 mins by flow cytometry; type: cell-based
[5] = MT4 cells expressing CD4 and CXCR4

T1 sequence (P61073 whole entry): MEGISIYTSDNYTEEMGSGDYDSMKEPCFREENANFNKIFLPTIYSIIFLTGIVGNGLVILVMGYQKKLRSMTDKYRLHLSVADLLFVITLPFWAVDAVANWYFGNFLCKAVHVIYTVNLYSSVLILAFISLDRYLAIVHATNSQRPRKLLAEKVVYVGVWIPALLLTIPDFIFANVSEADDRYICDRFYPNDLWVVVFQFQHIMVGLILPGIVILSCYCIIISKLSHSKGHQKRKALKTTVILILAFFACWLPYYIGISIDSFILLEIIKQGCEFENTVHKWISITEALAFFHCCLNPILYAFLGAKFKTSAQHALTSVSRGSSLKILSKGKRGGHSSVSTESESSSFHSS

Structure (SMILES)	IC50 [2] [nM]	IC50 [3] [nM]	IC50 [4] [nM]	CC50 [1, 5] [nM]	CC50 ([1]; mt4) [nM]
c1ccc(CCN(Cc2ccc(CNCc3ccccn3)cc2)C2CCCc3cccnc32)nc1 (stereo not drawn)	2100	–	–	> 118000	–
NCc1cccc(CN(Cc2nc3ccccc3[nH]2)C2CCCc3cccnc32)c1 (stereo not drawn)	575	1400	–	45900	–
NCCCCN(Cc1nc2ccccc2[nH]1)C1CCCc2cccnc21 (stereo not drawn)	4.8	–	–	160000	–
NCCCCCCN(Cc1nc2ccccc2[nH]1)C1CCCc2cccnc21 (stereo not drawn)	101	75	–	–	30200
NC/C=C/CN(Cc1nc2ccccc2[nH]1)C1CCCc2cccnc21 (stereo not drawn)	28	160	–	50800	–
NCC#CCN(Cc1nc2ccccc2[nH]1)C1CCCc2cccnc21 (stereo not drawn)	170	973	–	10800	–
c1ccc(CNCc2ccc(CN(Cc3nc4ccccc4s3)C3CCCc4cccnc43)cc2)nc1 (stereo not drawn)	4600	–	–	22300	–
c1ccc(CNCc2ccc(CN(Cc3nc4ccccc4[nH]3)[C@@H]3CCCc4cccnc43)cc2)nc1	1080	–	29200	–	–
c1ccc(CNCc2ccc(CN(Cn3cnc4ccccc43)C3CCCc4cccnc43)cc2)nc1 (stereo not drawn)	18800	–	–	21000	–
c1ccc(CNCc2ccc(CN(Cc3ccccn3)C3CCCc4cccnc43)cc2)nc1 (stereo not drawn)	270	–	–	44000	–
c1ccc(CN(Cc2ccc(CNCc3ccccn3)cc2)C2CCCc3cccnc32)cc1 (stereo not drawn)	> 4300	–	–	21000	–

Continued by falling IC50 [2], values first:

IC50 [2] [nM]	IC50 [3] [nM]	IC50 [4] [nM]	Structure (SMILES)	CC50 [1, 5] [nM]	CC50 ([1]; mt4) [nM]
14100	–	–	c1ccc(CNCc2ccc(CNC3CCc4cccnc43)cc2)nc1 (stereo not drawn)	–	–
4900	–	–	c1ccc(CNCc2ccc(CN(Cc3ccccn3)C3CCc4cccnc43)cc2)nc1 (stereo not drawn)	124000	–
2700	–	–	c1ccc(CNCc2ccc(CNC3CCCc4cccnc43)cc2)nc1 (stereo not drawn)	–	–
2500	–	–	c1ccc(CNCc2ccc(CNC3CCCCc4cccnc43)cc2)nc1 (stereo not drawn)	–	–
1100	–	–	c1ccc(CNCc2ccc(CN(CCc3nc4ccccc4[nH]3)C3CCCc4cccnc43)cc2)nc1 (stereo not drawn)	23100	–
200	–	–	c1ccc(CNCc2ccc(CN(Cc3ncc[nH]3)C3CCCc4cccnc43)cc2)nc1 (stereo not drawn)	500	–
77	68	–	NCCCN(Cc1nc2ccccc2[nH]1)C1CCCc2cccnc21 (stereo not drawn)	32900	–
60	–	–	c1ccc(CNCCN(Cc2ccc(CNCc3ccccn3)cc2)C2CCCc3cccnc32)nc1 (stereo not drawn)	21000	–
15	77	–	NC/C=C\CN(Cc1nc2ccccc2[nH]1)C1CCCc2cccnc21 (stereo not drawn)	51900	–
